The values below come from patent US7531671B2, “Dihydroisoindolones as allosteric modulators of glucokinase” (Janssen Pharmaceutica N.V., priority 2005, dated 2009).

This assay has as its target T1, human liver Glucokinase (GK) (Homo sapiens, UniProt P35557).
T1 construct: (His)6; made in house; host or cells: Escherichia coli
T1 sequence (P35557 1-466 isoform P35557-2): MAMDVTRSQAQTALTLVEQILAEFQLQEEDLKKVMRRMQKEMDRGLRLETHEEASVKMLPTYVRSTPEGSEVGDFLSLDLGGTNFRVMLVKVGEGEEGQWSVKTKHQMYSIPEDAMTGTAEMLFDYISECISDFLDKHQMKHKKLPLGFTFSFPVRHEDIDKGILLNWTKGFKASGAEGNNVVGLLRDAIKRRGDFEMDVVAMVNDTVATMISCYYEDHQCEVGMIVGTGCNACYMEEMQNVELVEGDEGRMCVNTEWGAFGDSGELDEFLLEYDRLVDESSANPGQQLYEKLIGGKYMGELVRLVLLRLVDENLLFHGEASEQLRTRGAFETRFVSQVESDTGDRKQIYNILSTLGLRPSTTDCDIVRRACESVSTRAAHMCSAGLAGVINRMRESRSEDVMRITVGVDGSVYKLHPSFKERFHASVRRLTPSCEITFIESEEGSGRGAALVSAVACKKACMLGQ
The experiment in a line: Glucokinase enzyme assay, Liver GK data. Type of assay: biochemical. The conditions noted are these: for pEC50: concentration producing 50% activation above vehicle control; for EC100%: concentration producing 100% activation above vehicle control. An excerpt: An enzymatic Glucokinase (GK) assay using purified recombinant human liver/pancreas enzyme was used to evaluate the effects of potential small molecule modulators.
In this assay, GK catalyzes glucose phosphorylation in the presence of ATP. The product of this reaction, glucose-6-phosphate, was then oxidized by an excess of glucose-6-phosphate dehydrogenase to produce gluconate-6-phosphate with concomitant reduction of nicotinamide adenine dinucleotide (NAD). […] Human GK (Liver/Pancreas) was expressed in Escherichia coli as a (His) 6-tagged fusion protein and was purified by metal chelate affinity chromatography. The assay was performed in a final incubation volume of 80 μl in a 96-well clear low UV absorption plates. The incubation mixture consisted of 25 mM HEPES, 2 mM MgSO4, 1 mM dithiothreotol (DTT), 1 mg/ml bovine serum albumin (BSA), 1 mM ATP, 1 mM NAD, and 12 mM glucose, 10 units per ml glucose-6-phosphate dehydrogenase, and +/−300 ng per ml GK. For determination of the affinity (Km) and Vmax, different concentrations of glucose ranging from 0.5 mM to 40 mM were used in the assay; see Grimsby, J., Sarabu, R.; Grippo, J. F.; et. al. Science 2003, 301, 370-373. Production of reduced NAD (Nicotinamide Adenine Dinucleotide) was measured as changes in absorption at 340 nm in 96-well plate reader (Envision model # 2101 Multilabel Plate reader). % Activation @ 50 μM was calculated as the percentage increase in GK activity above the vehicle control with the effective concentration of the compound being 50 μM. EC50% (μM) was calculated as the effective concentration of the compound that produces 50% activation above the vehicle control, and EC100% (μM) was calculated as the effective concentration of the compound that produces 100% activation above the vehicle control.

The mark [1] stands for this setting: compound 50 μM, percentage increase in GK activity above vehicle control, 12 mM glucose.

pEC50: −log10 of the molar value. “And” between values parts separate entries of the source, which are not always exact repeats. Equal values may be shown once.

For the compound `COc1ccc(CN2C(=O)c3ccccc3C2SCC(=O)Nc2nccs2)cc1` (centres unmarked) [Compound 29, 2-[2-(4-Methoxybenzyl)-3-oxo-2,3-dihydro-1H-isoindol-1-ylsulfanyl]-N-thiazol-2-yl-acetamide], the pEC50 (commonly the EC50 on a negative log10 scale, so that one unit is a factor of ten) was 5.36 and the “EC100%” value was determined as 17.6 µM. Further, the activation at 50 µM under setting [1] worked out at 156%.
Consider `COC(=O)c1ccc(NC(=O)CSC2c3ccccc3C(=O)N2Cc2ccccc2)nc1` (centres unmarked) [Compound 35, 6-[2-(2-Benzyl-3-oxo-2,3-dihydro-1H-isoindol-1-ylsulfanyl)-acetylamino]-nicotinic acid methyl ester], for which the “EC100%” value is 2.9 µM and 3.0 µM. Under setting [1], this compound had an activation at 50 µM of 171%.
As to `O=C(CSC1c2ccccc2C(=O)N1Cc1ccc(Cl)cc1)Nc1nccs1` (centres unmarked) [Compound 30, 2-[2-(4-Chlorobenzyl)-3-oxo-2,3-dihydro-1H-isoindol-1-ylsulfanyl]-N-thiazol-2-yl-acetamide], the pEC50 was 5.02. Under setting [1], the activation at 50 µM came out at 102%.
Taken in the same sequence, the figures for `O=C(COC1c2ccccc2C(=O)N1Cc1ccccc1)Nc1nccs1` (centres unmarked) [Compound 28, 2-(2-Benzyl-3-oxo-2,3-dihydro-1H-isoindol-1-yloxy)-N-thiazol-2-yl-acetamide] were 4.95 and 73%.
For `COC(=O)c1ccc(NC(=O)COC2c3ccccc3C(=O)N2Cc2ccccc2)nc1` (centres unmarked) [Compound 37, 6-[2-(2-Benzyl-3-oxo-2,3-dihydro-1H-isoindol-1-yloxy)-acetylamino]-nicotinic acid methyl ester], the pEC50 is 6.24 and the “EC100%” value came out at 1.57 µM. Under setting [1], the activation at 50 µM was found to be 256%.
Turning to `CCOC(=O)Cc1csc(NC(=O)CSC2c3ccccc3C(=O)N2Cc2cccs2)n1` (centres unmarked) [Compound 36, {2-[2-(3-Oxo-2-thiophen-2-ylmethyl-2,3-dihydro-1H-isoindol-1-ylsulfanyl)-acetylamino]-thiazol-4-yl}-acetic acid ethyl ester], the pEC50 was 5.05. The same compound displayed an activation at 50 µM under setting [1] of 143%.
For `O=C(COC1c2ccccc2C(=O)N1Cc1ccccc1)Nc1ccccn1` (centres unmarked) [Compound 23, 2-(2-Benzyl-3-oxo-2,3-dihydro-1H-isoindol-1-yloxy)-N-pyridin-2-yl-acetamide], the pEC50 was 5.75 and the “EC100%” value worked out at 8.71 µM. The same compound displayed an activation at 50 µM under setting [1] of 164%.
Take `O=C(CSC1c2ccccc2C(=O)N1Cc1cccs1)Nc1ncccn1` (centres unmarked) [Compound 16, 2-(3-Oxo-2-thiophen-2-ylmethyl-2,3-dihydro-1H-isoindol-1-ylsulfanyl)-N-pyrimidin-2-yl-acetamide]: under setting [1], the activation at 50 µM came out at 13%.
In turn, `O=C(CSC1c2ccccc2C(=O)N1Cc1ccccc1)Nc1ccc(C(=O)O)cn1` (centres unmarked) [Compound 19, 6-[2-(2-Benzyl-3-oxo-2,3-dihydro-1H-isoindol-1-ylsulfanyl)-acetyamino]-nicotinic acid] showed a pEC50 of 5.49. Moreover, under setting [1], the activation at 50 µM amounted to 146%.
For the compound `O=C(CSC1c2ccccc2C(=O)N1Cc1ccco1)Nc1nccs1` (centres unmarked) [Compound 32, 2-(2-Furan-2-ylmethyl-3-oxo-2,3-dihydro-1H-isoindol-1-ylsulfanyl)-N-thiazol-2-yl-acetamide], the pEC50 is 5.04. Under setting [1], this compound had an activation at 50 µM of 113%.
Consider `CN(C)c1ccc(CN2C(=O)c3ccccc3C2SCC(=O)Nc2nccs2)cc1` (centres unmarked) [Compound 33, 2-[2-(4-Dimethylaminobenzyl)-3-oxo-2,3-dihydro-1H-isoindol-1-ylsulfanyl]-N-thiazol-2-yl-acetamide], for which the pEC50 was 5.59. Moreover, the activation at 50 µM under setting [1] came to 229%.
As for `O=C(CSC1c2ccccc2C(=O)N1Cc1cccs1)Nc1cnccn1` (centres unmarked) [Compound 31, 2-(3-Oxo-2-thiophen-2-ylmethyl-2,3-dihydro-1H-isoindol-1-ylsulfanyl)-N-pyrazin-2-yl-acetamide], the pEC50 was 5.40 and the “EC100%” value was found to be 12 µM. For the same compound, under setting [1], the activation at 50 µM was 199%.
In the case of `O=C(CNC1c2ccccc2C(=O)N1Cc1ccccc1)Nc1ccccn1` (centres unmarked) [Compound 27, 2-(2-Benzyl-3-oxo-2,3-dihydro-1H-isoindol-1-ylamine)-N-pyridin-2-yl-acetamide], the pEC50 is 5.74 and 6.05; the “EC100%” value is 4.5 µM and 2.6 µM. Moreover, the “% Activation @ 50 μM” value under setting [1] is 228%.
On to `O=C(CSC1c2ccccc2C(=O)N1Cc1cccs1)Nc1nccs1` (centres unmarked) [Compound 14, 2-(3-Oxo-2-thiophen-2-ylmethyl-2,3-dihydro-1H-isoindol-1-ylsulfanyl)-N-thiazol-2-yl-acetamide], for which the pEC50 is 5.30 and the “EC100%” value was 19.4 µM.
Take `COC(=O)c1ccc(NC(=O)CSC2c3ccccc3C(=O)N2Cc2cccs2)nc1` (centres unmarked) [Compound 34, 6-[2-(3-Oxo-2-thiophen-2-ylmethyl-2,3-dihydro-1H-isoindol-1-ylsulfanyl)-acetylamino]-nicotinic acid methyl ester]: the pEC50 was 6.00 and the “EC100%” value is 4.1 µM. The compound further gave an activation at 50 µM under setting [1] of 180%.
